This passage reports MIC results from publication PMC4019636, “Rational Design of Berberine-Based FtsZ Inhibitors with Broad-Spectrum Antibacterial Activity” (PLoS ONE, 2014).

As usually defined, the MIC is the least concentration at which growth counts as inhibited.

Molecules are shown by their SMILES. Like-named read-outs stand apart in the source and are kept apart here.

Holding throughout (format): cell-based
Assay [1] has as its system vancomycin-susceptible and vancomycin-resistant E. faecium. Briefly: Antimicrobial susceptibility assay, summary over E. faecium strains. To be noted: Enterococcus faecium. The text has this: (§1) The bacterial strains S. aureus ATCC 29213, S. aureus ATCC 29247, S. aureus ATCC BAA-41, E. faecium ATCC 49624, E. faecium ATCC 700221, E. faecalis ATCC 29212, S. epidermidis ATCC 12228, E. coli ATCC 25922, and K. pneumoniae ATCC BAA-1144 used in the antimicrobial susceptibility assays were purchased from American Type Culture Collection (ATCC, USA). B. subtilis strain 168 was already available in our in-house collection. E. coli JM109 WM647 was kindly provided by Dr. W. Margolin (University of Texas-Houston Medical School). FM 4–64 was purchased from Invitrogen (Eugene, Oregon). All other chemicals and reagents were purchased from Sigma-Aldrich. Stock solutions were prepared in DMSO. The final percentage of DMSO in the assays was 1% (v/v) for all experiments.
(§2) Antimicrobial susceptibility tests were conducted in 96-well microplates using the broth microdilution procedure described in the Clinical and Laboratory Standards Institute (CLSI) guidelines. Cation-adjusted Mueller Hinton broth for S. aureus strain ATCC 29213, methicillin-resistant S. aureus strain ATCC BAA-41 and ampicillin-resistant S. aureus strain ATCC 29247, or brain heart infusion broth for antibiotic-susceptible E. faecium strain ATCC 49624 and vancomycin-resistant E. faecium strain ATCC 700221, or Mueller Hinton broth for antibiotic-susceptible strains B. subtilis strain 168, E. faecalis strain ATCC 29212 and E. coli strain ATCC 25922 were used in the assays. After incubation for 18 h at 37°C, the absorbance at 600 nm (A600) was recorded using a microplate reader (Bio-Rad laboratory Ltd., UK) and the percentage of bacterial cell inhibition with respect to vehicles (1% DMSO) was calculated. The MIC was defined as the lowest compound concentration at which the growth of bacteria was inhibited by ≥90%. Three independent assays were performed for each test.

In assay [2] the test system is Gram-negative strains E. coli and K. pneumoniae (expressing AmpC β-lactamase). The assay can be described thus: Antimicrobial susceptibility assay, summary over Gram-negative strains. The conditions noted are these: Escherichia coli, read-out: MIC values.
Text: as §1, §2

Assay [3] relates to antibiotic-susceptible and antibiotic-resistant S. aureus strains. Briefly: Antimicrobial susceptibility assay, summary over S. aureus strains. The conditions noted are these: Staphylococcus aureus.
Text: as §1, §2

Assay [4] concerns S. aureus ATCC 29247. The assay can be described thus: Antimicrobial susceptibility assay (broth microdilution MIC). The conditions noted are these: Staphylococcus aureus, ATCC29247; S. aureus ATCC 29247 (ampicillin-resistant); 18 h at 37°C; growth inhibited by ≥90%; read-out: MIC.
Text: as §1, §2
A general note: Dilution methods test growth across graded concentrations, often in twofold steps.

The test system of assay [5] is E. faecalis ATCC 29212. Described as above. The conditions noted are these: Enterococcus faecalis, ATCC29212; E. faecalis ATCC 29212; Mueller Hinton broth, 18 h at 37°C; growth inhibited by ≥90%; read-out: MIC.
Text: as §1, §2

The subject of assay [6] is S. epidermidis ATCC 12228. The assay is described as above. The conditions noted are these: Staphylococcus epidermidis, ATCC12228; S. epidermidis ATCC 12228; 18 h at 37°C; growth inhibited by ≥90%; read-out: MIC.
Text: as §1, §2

Assay [7] has as its system S. aureus ATCC BAA-41. Described as above. The conditions noted are these: Staphylococcus aureus, ATCCBAA41; S. aureus ATCC BAA-41 (methicillin-resistant); 18 h at 37°C; growth inhibited by ≥90%; read-out: MIC.
Text: as §1, §2

Assay [8] deals with K. pneumoniae ATCC BAA-1144. The description is as above. The conditions noted are these: Klebsiella pneumoniae, ATCCBAA1144; K. pneumoniae ATCC BAA-1144 (Gram-negative, expressing AmpC β-lactamase); 18 h at 37°C; growth inhibited by ≥90%; read-out: MIC.
Text: as §1, §2

Assay [9] has as its system B. subtilis 168. The description is as above. The conditions noted are these: Bacillus subtilis; B. subtilis 168; Mueller Hinton broth, 18 h at 37°C; growth inhibited by ≥90%; read-out: MIC.
Text: as §1, §2

In assay [10] the test system is S. aureus ATCC 29213. The description is as above. To be noted: Staphylococcus aureus, ATCC29213; S. aureus ATCC 29213; cation-adjusted Mueller Hinton broth, 18 h at 37°C; growth inhibited by ≥90%; read-out: MIC.
Text: as §1, §2

The subject of assay [11] is E. coli ATCC 25922. The description is as above. To be noted: Escherichia coli, ATCC25922; E. coli ATCC 25922; Mueller Hinton broth, 18 h at 37°C; growth inhibited by ≥90%; read-out: MIC.
Text: as §1, §2

[12] abbreviates: Gram-negative strains E. coli and K. pneumoniae.

As for `COc1ccc2cc3[n+](cc2c1OCCCOc1ccc(Cl)cc1)CCc1cc2c(cc1-3)OCO2` [Compound 2], the MIC in assay [1] is 4 to 16 µg/mL; in [2] (setting [12]) it was 32 to 128 µg/mL; in [3], 2 to 8 µg/mL; in [4] it was 2 µg/mL; in assay [5], 4 µg/mL; in assay [6], 2 µg/mL. The MIC in [7] came to 2 µg/mL; in [8] it was 64 µg/mL; in assay [9], 4 µg/mL; in assay [10], 2 µg/mL; in assay [11], 32 µg/mL.
Turning to `COc1ccc2cc3[n+](cc2c1OCCCOc1ccccc1)CCc1cc2c(cc1-3)OCO2` [Compound 1], the MIC in assay [1] is 4 to 16 µg/mL; in assay [2] (setting [12]), 32 to 128 µg/mL; in assay [3], 2 to 8 µg/mL; in assay [4], 4 µg/mL; in [5], 16 µg/mL; in [6], 4 µg/mL. For the same molecule, the MIC in [7] stood at 4 µg/mL; in assay [8] it was 128 µg/mL; in [9] it was 8 µg/mL; in assay [10] it was 4 µg/mL; in [11], 96 µg/mL.
As for `COc1ccc2cc3[n+](cc2c1OCCCOc1ccccc1C)CCc1cc2c(cc1-3)OCO2` [Compound 4], the MIC in [1] was 4 to 16 µg/mL; in assay [2] (setting [12]) it was 32 to 128 µg/mL; in assay [3], 2 to 8 µg/mL; in assay [4], 4 µg/mL; in assay [5], 8 µg/mL; in [6], 4 µg/mL. Moreover, the MIC is 4 µg/mL in assay [7]; 64 µg/mL in assay [8]; 8 µg/mL in [9]; 4 µg/mL in assay [10]; 96 µg/mL in [11].
`COc1ccc(OCCCOc2c(OC)ccc3cc4[n+](cc23)CCc2cc3c(cc2-4)OCO3)cc1` [Compound 3]: the MIC was 4 to 16 µg/mL in assay [1]; 32 to 128 µg/mL in assay [2] (setting [12]); 2 to 8 µg/mL in assay [3]; 8 µg/mL in assay [4]; 32 µg/mL in [5]; 4 µg/mL in assay [6]. In addition, the MIC in [7] came out at 8 µg/mL; in assay [8] it was 128 µg/mL; in [9], 8 µg/mL; in assay [10], 8 µg/mL; in assay [11], 128 µg/mL.
Turning to `COc1ccc2cc3[n+](cc2c1OC)CCc1cc2c(cc1-3)OCO2` [Berberine, Berberine chloride], the MIC in [1] is more than 196 µg/mL; in assay [2], more than 500 µg/mL; in assay [3] it was 128 to 196 µg/mL; in assay [4] it was 128 µg/mL; in [5], more than 196 µg/mL; in [6], 128 µg/mL. Besides, the MIC in [7] is 196 µg/mL; in [8] it was more than 500 µg/mL; in assay [9] it was 128 µg/mL; in [10], 128 µg/mL; in assay [11] it was more than 500 µg/mL.
As to `COc1ccc2cc3[n+](cc2c1OCCCCOc1ccccc1)CCc1cc2c(cc1-3)OCO2` [Compound 6], the MIC in assay [1] was 4 to 16 µg/mL; in assay [2] (setting [12]) it was 32 to 128 µg/mL; in assay [3], 2 to 8 µg/mL; in assay [4], 4 µg/mL; in assay [5], 16 µg/mL; in assay [6] it was 4 µg/mL. In addition, the MIC in [7] was 4 µg/mL; in [8], 128 µg/mL; in assay [9] it was 8 µg/mL; in [10] it was 4 µg/mL; in assay [11] it was 96 µg/mL.
On to `COc1ccc2cc3[n+](cc2c1OCCCOc1ccc([N+](=O)[O-])cc1)CCc1cc2c(cc1-3)OCO2` [Compound 5], for which the minimal inhibitory concentration (MIC) in [1] is 4 to 16 µg/mL; in assay [2] (setting [12]), 32 to 128 µg/mL; in [3], 2 to 8 µg/mL; in assay [4] it was 2 µg/mL; in assay [5] it was 8 µg/mL; in [6] it was 2 µg/mL. Moreover, the MIC was 2 µg/mL in assay [7]; 64 µg/mL in [8]; 8 µg/mL in [9]; 2 µg/mL in assay [10]; 32 µg/mL in [11].
